Laboratory results published in ChEMBL document CHEMBL5338704, “Discovery of novel phenylhydrazone-based oxindole-thiolazoles as potent antibacterial agents toward Pseudomonas aeruginosa” (Eur J Med Chem, 2022).
≈ marks a conversion by molar mass, not a printed value. Calls of active or inactive are those of the source. The calls are words filed in the database; no cut-off is given here.

Experiments:
[1] = tested on: Staphylococcus aureus; test: Antibacterial activity against Staphylococcus aureus ATCC 25923 assessed as inhibition of bacterial growth by micro-broth dilution assay; type: functional
[2] = tested on: Pseudomonas aeruginosa; test: Antibacterial activity against Pseudomonas aeruginosa ATCC 27853 assessed as inhibition of bacterial growth by micro-broth dilution assay; type: functional
[3] = tested on: Enterococcus faecalis; test: Antibacterial activity against Enterococcus faecalis assessed as inhibition of bacterial growth by micro-broth dilution assay; type: functional
[4] = tested on: Staphylococcus aureus; test: Antibacterial activity against Staphylococcus aureus assessed as inhibition of bacterial growth by micro-broth dilution assay; type: functional
[5] = tested on: Pseudomonas aeruginosa; test: Antibacterial activity against Pseudomonas aeruginosa assessed as inhibition of bacterial growth by micro-broth dilution assay; type: functional
[6] = Hemolytic activity in RBC (unknown origin) assessed as hemolysis; type: toxicity, cell-based, Erythrocyte; conditions: red blood cells (erythrocytes)
[7] = tested on: Escherichia coli; test: Antibacterial activity against Escherichia coli ATCC 25922 assessed as inhibition of bacterial growth by micro-broth dilution assay; type: functional
[8] = tested on: Acinetobacter baumannii; test: Antibacterial activity against Acinetobacter baumannii assessed as inhibition of bacterial growth by micro-broth dilution assay; type: functional
[9] = tested on: Klebsiella pneumoniae; test: Antibacterial activity against Klebsiella pneumoniae assessed as inhibition of bacterial growth by micro-broth dilution assay; type: functional
[10] = tested on: Escherichia coli; test: Antibacterial activity against Escherichia coli assessed as inhibition of bacterial growth by micro-broth dilution assay; type: functional
[11] = tested on: Staphylococcus aureus; test: Antibacterial activity against Staphylococcus aureus ATCC 29213 assessed as inhibition of bacterial growth by micro-broth dilution assay; type: functional
[12] = tested on: Staphylococcus aureus; test: Antibacterial activity against methicillin resistant Staphylococcus aureus assessed as inhibition of bacterial growth by micro-broth dilution assay; type: functional
[13] = tested on: Acinetobacter baumannii; test: Potency index, ratio of norfloxacin MIC to test compound MIC for antibacterial activity against Acinetobacter baumannii assessed as inhibition of bacterial growth by micro-broth dilution assay; type: functional
[14] = tested on: Pseudomonas aeruginosa; test: Antibacterial activity against Pseudomonas aeruginosa ATCC 27853 assessed as inhibition of bacterial growth measured after 6 hrs; type: functional, organism-based
[15] = tested on: Pseudomonas aeruginosa; test: Antibacterial activity against Pseudomonas aeruginosa ATCC 27853 assessed as inhibition of bacterial growth at 4 times MIC measured upto 14 hrs; type: functional, organism-based

Compound	MIC [1] [µg/mL]	MIC [2] [µg/mL]	MIC [3] [µg/mL]	MIC [4] [µg/mL]	MIC [5] [µg/mL]	HC50 [6] [µg/mL]	MIC [7] [µg/mL]	MIC [8] [µg/mL]	MIC [9] [µg/mL]	MIC [10] [µg/mL]	MIC [11] [µg/mL]	MIC [12] [µg/mL]	Ratio [13]	Activity [14]	Activity [15]
Cn1nnnc1SCC(O)CN1C(=O)/C(=N\Nc2ccc([N+](=O)[O-])cc2)c2ccccc21 (stereo not given)	4 (≈ 8.8 µM)	4 (≈ 8.8 µM)	8 (≈ 17.6 µM)	64 (≈ 141 µM)	2 (≈ 4.4 µM)	262	16 (≈ 35.2 µM)	64 (≈ 141 µM)	16 (≈ 35.2 µM)	64 (≈ 141 µM)	16 (≈ 35.2 µM)	8 (≈ 17.6 µM)	–	–	–
Cn1nnnc1SCC(O)CN1C(=O)C(=O)c2ccccc21 (stereo not given)	128 (≈ 401 µM)	32 (≈ 100 µM)	64 (≈ 200 µM)	32 (≈ 100 µM)	64 (≈ 200 µM)	335	16 (≈ 50.1 µM)	64 (≈ 200 µM)	16 (≈ 50.1 µM)	64 (≈ 200 µM)	64 (≈ 200 µM)	64 (≈ 200 µM)	–	–	–
Cc1ccc(N/N=C2\C(=O)N(CC(O)CSc3nnnn3C)c3ccccc32)cc1 (stereo not given)	4 (≈ 9.45 µM)	4 (≈ 9.45 µM)	8 (≈ 18.9 µM)	2 (≈ 4.72 µM)	2 (≈ 4.72 µM)	383	64 (≈ 151 µM)	2 (≈ 4.72 µM)	16 (≈ 37.8 µM)	32 (≈ 75.6 µM)	16 (≈ 37.8 µM)	8 (≈ 18.9 µM)	2	–	–
Cc1ccc(N/N=C2\C(=O)N(CC(O)CSc3nc[nH]n3)c3ccccc32)cc1 (stereo not given)	4 (≈ 9.79 µM)	8 (≈ 19.6 µM)	2 (≈ 4.9 µM)	32 (≈ 78.3 µM)	64 (≈ 157 µM)	416	32 (≈ 78.3 µM)	16 (≈ 39.2 µM)	32 (≈ 78.3 µM)	32 (≈ 78.3 µM)	8 (≈ 19.6 µM)	16 (≈ 39.2 µM)	–	–	–
Cn1ccnc1SCC(O)CN1C(=O)/C(=N\Nc2ccc([N+](=O)[O-])cc2)c2ccccc21 (stereo not given)	64 (≈ 141 µM)	16 (≈ 35.4 µM)	128 (≈ 283 µM)	128 (≈ 283 µM)	256 (≈ 566 µM)	> 512	128 (≈ 283 µM)	64 (≈ 141 µM)	32 (≈ 70.7 µM)	32 (≈ 70.7 µM)	128 (≈ 283 µM)	64 (≈ 141 µM)	–	–	–
CCn1cc(C(=O)O)c(=O)c2cc(F)c(N3CCNCC3)cc21 [NORFLOXACIN]	4 (≈ 12.5 µM)	4 (≈ 12.5 µM)	4 (≈ 12.5 µM)	2 (≈ 6.26 µM)	8 (≈ 25.1 µM)	–	2 (≈ 6.26 µM)	4 (≈ 12.5 µM)	2 (≈ 6.26 µM)	8 (≈ 25.1 µM)	2 (≈ 6.26 µM)	8 (≈ 25.1 µM)	–	Active	Active
Cn1nnnc1SCC(O)CN1C(=O)/C(=N\Nc2ccccc2)c2ccccc21 (stereo not given)	128 (≈ 313 µM)	32 (≈ 78.1 µM)	32 (≈ 78.1 µM)	64 (≈ 156 µM)	16 (≈ 39.1 µM)	406	16 (≈ 39.1 µM)	2 (≈ 4.88 µM)	2 (≈ 4.88 µM)	32 (≈ 78.1 µM)	128 (≈ 313 µM)	16 (≈ 39.1 µM)	2	–	–
O=C(O)c1ccc(N/N=C2\C(=O)N(CC(O)CSc3nc[nH]n3)c3ccccc32)cc1 (stereo not given)	8 (≈ 18.2 µM)	16 (≈ 36.5 µM)	2 (≈ 4.56 µM)	64 (≈ 146 µM)	64 (≈ 146 µM)	282	32 (≈ 73 µM)	16 (≈ 36.5 µM)	2 (≈ 4.56 µM)	8 (≈ 18.2 µM)	4 (≈ 9.12 µM)	4 (≈ 9.12 µM)	–	–	–
Cn1nnnc1SCC(O)CN1C(=O)/C(=N\Nc2ccc(C(=O)O)cc2)c2ccccc21 (stereo not given)	16 (≈ 35.3 µM)	32 (≈ 70.6 µM)	8 (≈ 17.6 µM)	16 (≈ 35.3 µM)	128 (≈ 282 µM)	292	16 (≈ 35.3 µM)	32 (≈ 70.6 µM)	32 (≈ 70.6 µM)	32 (≈ 70.6 µM)	16 (≈ 35.3 µM)	4 (≈ 8.82 µM)	–	–	–
Cn1ccnc1SCC(O)CN1C(=O)/C(=N\Nc2ccccc2)c2ccccc21 (stereo not given)	256 (≈ 628 µM)	128 (≈ 314 µM)	128 (≈ 314 µM)	128 (≈ 314 µM)	256 (≈ 628 µM)	441	128 (≈ 314 µM)	128 (≈ 314 µM)	128 (≈ 314 µM)	128 (≈ 314 µM)	128 (≈ 314 µM)	128 (≈ 314 µM)	–	–	–
O=C1/C(=N\Nc2ccccc2)c2ccccc2N1CC(O)CSc1nc[nH]n1 (stereo not given)	16 (≈ 40.6 µM)	128 (≈ 324 µM)	32 (≈ 81.1 µM)	32 (≈ 81.1 µM)	16 (≈ 40.6 µM)	375	64 (≈ 162 µM)	128 (≈ 324 µM)	128 (≈ 324 µM)	128 (≈ 324 µM)	128 (≈ 324 µM)	128 (≈ 324 µM)	–	–	–
Cc1ccc(N/N=C2\C(=O)N(CC(O)CSc3nccn3C)c3ccccc32)cc1 (stereo not given)	128 (≈ 304 µM)	256 (≈ 607 µM)	128 (≈ 304 µM)	128 (≈ 304 µM)	128 (≈ 304 µM)	358	128 (≈ 304 µM)	128 (≈ 304 µM)	128 (≈ 304 µM)	64 (≈ 152 µM)	256 (≈ 607 µM)	256 (≈ 607 µM)	–	–	–
Cn1ccnc1SCC(O)CN1C(=O)C(=O)c2ccccc21 (stereo not given)	32 (≈ 101 µM)	64 (≈ 202 µM)	128 (≈ 403 µM)	64 (≈ 202 µM)	64 (≈ 202 µM)	> 512	64 (≈ 202 µM)	64 (≈ 202 µM)	64 (≈ 202 µM)	128 (≈ 403 µM)	64 (≈ 202 µM)	128 (≈ 403 µM)	–	–	–
O=C1C(=O)N(CC(O)CSc2nc[nH]n2)c2ccccc21 (stereo not given)	32 (≈ 105 µM)	128 (≈ 421 µM)	64 (≈ 210 µM)	128 (≈ 421 µM)	16 (≈ 52.6 µM)	285	128 (≈ 421 µM)	64 (≈ 210 µM)	32 (≈ 105 µM)	64 (≈ 210 µM)	64 (≈ 210 µM)	64 (≈ 210 µM)	–	–	–
Cn1ccnc1SCC(O)CN1C(=O)/C(=N\Nc2ccc(Cl)cc2)c2ccccc21 (stereo not given)	256 (≈ 579 µM)	32 (≈ 72.4 µM)	4 (≈ 9.05 µM)	16 (≈ 36.2 µM)	64 (≈ 145 µM)	151	128 (≈ 290 µM)	16 (≈ 36.2 µM)	2 (≈ 4.53 µM)	32 (≈ 72.4 µM)	64 (≈ 145 µM)	128 (≈ 290 µM)	–	–	–
O=C1/C(=N\Nc2ccc([N+](=O)[O-])cc2)c2ccccc2N1CC(O)CSc1nc[nH]n1 (stereo not given)	128 (≈ 291 µM)	64 (≈ 146 µM)	64 (≈ 146 µM)	32 (≈ 72.8 µM)	32 (≈ 72.8 µM)	> 512	128 (≈ 291 µM)	32 (≈ 72.8 µM)	64 (≈ 146 µM)	64 (≈ 146 µM)	32 (≈ 72.8 µM)	32 (≈ 72.8 µM)	–	–	–
Cn1nnnc1SCC(O)CN1C(=O)/C(=N\Nc2ccc(Cl)cc2)c2ccccc21 (stereo not given)	32 (≈ 72.1 µM)	32 (≈ 72.1 µM)	64 (≈ 144 µM)	32 (≈ 72.1 µM)	16 (≈ 36 µM)	> 512	4 (≈ 9.01 µM)	1 (≈ 2.25 µM)	2 (≈ 4.51 µM)	16 (≈ 36 µM)	256 (≈ 577 µM)	16 (≈ 36 µM)	2	–	–
O=C1/C(=N\Nc2ccc(Cl)cc2)c2ccccc2N1CC(O)CSc1nc[nH]n1 (stereo not given)	16 (≈ 37.3 µM)	32 (≈ 74.6 µM)	4 (≈ 9.33 µM)	32 (≈ 74.6 µM)	16 (≈ 37.3 µM)	350	8 (≈ 18.7 µM)	128 (≈ 298 µM)	4 (≈ 9.33 µM)	16 (≈ 37.3 µM)	8 (≈ 18.7 µM)	16 (≈ 37.3 µM)	–	–	–
